Tests used:
Assay type in all cases: cell-based; call rule not given here
[1] = biological target: T1, Proprotein convertase subtilisin/kexin type 9 (Homo sapiens, UniProt Q8NBP7); test: Inhibition of human PCSK9 in HepG2 cells incubated for 48 hrs by AlphaLISA assay
HepG2 [2] = test: Cytotoxicity against human HepG2 cells incubated for 24 hrs by MTT assay; conditions: hepg2, 24 h
HepG2 [3] = test: Cytotoxicity against human HepG2 cells at <50 uM incubated for 24 hrs by MTT assay; conditions: hepg2, 24 h
[4] = biological target: T1, Proprotein convertase subtilisin/kexin type 9; test: Inhibition of human PCSK9 in HepG2 cells incubated for 24 hrs followed by medium replenishment and measured after 24 hrs by ELISA

T1 sequence (Q8NBP7 31-152 limits assumed): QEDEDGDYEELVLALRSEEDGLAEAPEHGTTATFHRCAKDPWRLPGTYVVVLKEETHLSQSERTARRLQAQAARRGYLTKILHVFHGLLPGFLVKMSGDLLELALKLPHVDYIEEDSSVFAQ
T1 sequence (Q8NBP7 153-692 limits assumed): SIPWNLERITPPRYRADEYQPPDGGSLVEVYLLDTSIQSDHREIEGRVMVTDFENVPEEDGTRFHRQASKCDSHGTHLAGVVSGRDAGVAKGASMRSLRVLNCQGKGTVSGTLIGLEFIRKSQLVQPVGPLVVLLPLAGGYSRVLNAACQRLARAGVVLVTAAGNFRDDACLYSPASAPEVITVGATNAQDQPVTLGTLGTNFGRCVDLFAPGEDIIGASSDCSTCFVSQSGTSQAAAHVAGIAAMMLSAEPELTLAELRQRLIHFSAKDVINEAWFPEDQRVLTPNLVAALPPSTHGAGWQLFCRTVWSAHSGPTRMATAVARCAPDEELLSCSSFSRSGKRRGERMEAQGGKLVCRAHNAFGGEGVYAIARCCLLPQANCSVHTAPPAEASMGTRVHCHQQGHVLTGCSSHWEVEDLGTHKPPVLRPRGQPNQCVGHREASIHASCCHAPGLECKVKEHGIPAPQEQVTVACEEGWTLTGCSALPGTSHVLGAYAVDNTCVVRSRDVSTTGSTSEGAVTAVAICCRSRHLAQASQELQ

SMILES: Clc1ccc2[nH]cc(Cc3cc4ccccc4[nH]3)c2c1
- IC50 ([1]; read-out: IC50): 10000 nM
- Activity (HepG2 [2]): > 50 µM

SMILES: Cc1ccc2c(Cc3cc4ccccc4[nH]3)c[nH]c2c1
- IC50 ([1]; read-out: IC50): 1400 nM
- Activity (HepG2 [2]): 45 µM

SMILES: Cc1ccc2[nH]cc(Cc3cc4ccccc4[nH]3)c2c1
- IC50 ([1]; read-out: IC50): 5600 nM
- Activity (HepG2 [2]): > 50 µM

SMILES: Cc1ccc(S(=O)(=O)n2c(Cc3c[nH]c4c(Cl)cccc34)c(C)c3ccccc32)cc1
- IC50 ([1]; read-out: IC50): 2300 nM
- Activity (HepG2 [2]): > 50 µM

SMILES: Cc1ccc(S(=O)(=O)n2c(Cc3cn(C)c4ccccc34)c(C)c3ccccc32)cc1
- IC50 ([1]; read-out: IC50): 1500 nM
- Activity (HepG2 [2]): 45 µM

SMILES: Brc1ccc2[nH]cc(Cc3cc4ccccc4[nH]3)c2c1
- IC50 ([1]; hepg2): Not Active

SMILES: Cc1ccc(S(=O)(=O)n2c(Cc3cn(C)c4ccccc34)c(C(C)C)c3ccccc32)cc1
- IC50 ([1]; read-out: IC50): 1100 nM
- Activity (HepG2 [2]): > 50 µM

SMILES: Cc1ccc(S(=O)(=O)n2c(Cc3cn(C)c4ccccc34)c(-c3ccccc3)c3ccccc32)cc1
- IC50 ([1]; read-out: IC50): 2300 nM
- Activity (HepG2 [2]): 48 µM

SMILES: Clc1cccc2c(Cc3cc4ccccc4[nH]3)c[nH]c12
- IC50 ([1]; read-out: IC50): 2800 nM
- Activity (HepG2 [2]): > 50 µM

SMILES: Fc1ccc2[nH]c(Cc3c[nH]c4c(Cl)cccc34)cc2c1
- IC50 ([1]; read-out: IC50): 250 nM
- Activity (HepG2 [2]): > 50 µM

SMILES: Fc1cccc2c(Cc3cc4ccccc4[nH]3)c[nH]c12
- IC50 ([1]; read-out: IC50): 300 nM
- Activity (HepG2 [2]): 38 µM

SMILES: Fc1ccc2[nH]c(Cc3c[nH]c4c(F)cccc34)cc2c1
- Activity (HepG2 [3]): Non-Toxic
- IC50 [4]: 202 nM

SMILES: Cc1cccc2c(Cc3cc4ccccc4[nH]3)c[nH]c12
- IC50 ([1]; read-out: IC50): 900 nM
- Activity (HepG2 [2]): > 50 µM
